Experimental data as given in patent publication US20190233884A1 (University of Southern California, priority 2016, published 2019).
Where a name gives a salt, the structure may show the parent alone. Read-outs that look alike come from different tables or passages of the source.

What was measured:
[1] = cited from earlier work
[2] = clinical; settings: human, in vivo
Text: Neither TPI renal clearance (CLren) nor or tubular secretory Clearance (CLsec) were associated with SNPs in MATE1 (rs2289669 or rs2252281) when tested individually (FIG. 8). […] (FIGS. 8-10). TPI is strongly associated with PFS and OS with regard to renal clearance difference by OCT2 and MATE1 gene-gene interaction.

| SMILES | CLrenal and CLsec ([1]; healthy volunteers, OCT2 rs316019 heterozygote or homozygote along with MATE1 rs225281 heterozygote) | Clrenal ([1]; stratum 3 (MATE1 WT and OCT2 HM) compared with stratum 1 (MATE1 WT and OCT2 WT)) | Clrenal [2] [L/h] | CL renal ([2]; Clrenal) [mL/min] |
| --- | --- | --- | --- | --- |
| CN(C)C(=N)N=C(N)N [metformin, N,N-Dimethylimidodicarbonimidic diamide] | significantly lower | relatively higher |  |  |
| N=C1CCCN1Cc1[nH]c(=O)[nH]c(=O)c1Cl [TPI, tipiracil hydrochloride] |  |  | 29.6 | 555 |
